From patent US11022604B2, “Dock derived compound against laminin receptor (37 LR) and uses thereof” (Purdue Research Foundation, priority 2017, dated 2021) come the findings set out here.

Like-named read-outs stand apart in the source and are kept apart here.

The test system of one assay is THP-1 human monocytes. Description: Inflammatory gene expression (qPCR) in LPS-stimulated THP-1 macrophages. Format: cell-based. On the procedure:
FIG. 17—Fold change in inflammatory gene expression when THP-1 monocytes are treated with Compounds of Interest. […] PL, PMA-differentiated and treated with LPS. P18, PEDF peptide. (*, p<0.05 relative to PL)
Cell Culture. THP-1 human monocytes were purchased from ATCC (Manassas, Va.) and cultured in DMEM/10% FBS/1% Anti-Anti (Gibco). The monocytes were differentiated into macrophages with 5 ng/ml […] (PMA) for 48 h and pretreated with drugs for 6 h. Lipopolysaccharide (LPS, 10 ng/ml) stimulation was performed for 1 h and cells were collected for assays. Human adipose-derived mesenchymal stromal/stem cells (ASC) were purchased from LaCell, LLC (Metairie, La.) and grown on fibronectin-coated plates in MCDB-201/DMEM/10% FBS media. RNA isolation and qPCR. RNA was isolated from cell pellets using an RNAeasy kit (Qiagen) according to manufacturers' specifications for tissue samples. 1 μg RNA was reverse transcribed using a AmfiRivert kit (Genedepot) and 2 μl used in a SYBR green quantitative PCR reaction for detecting differences in gene expression relative to beta-actin control. Luciferase Assays. THP-1 human monocytes were seeded in OptiMEM/1% anti-anti (Gibco) and transfected using Lipofectamine LTX (Invitrogen, Carlsbad, Calif.) in a 96-well format in white opaque plates. […] The samples were read in a BiotekNeo (Bindley Bioscience Center). […]
Background: Real-time PCR tracks product formation cycle by cycle.

In assay [1] the test system is PC-3 androgen independent metastatic prostate cancer cells. Description: Cell viability screen (CCK-8), PC-3 cells. The assay is classed as cell-based. The following applies: CCK-8, 96 hours, read-out: IC50, inhibition of cell viability. The protocol: FIGS. 2A-2H. Dose response curves. Does response curves for cell lines treated with 6, 10.5, 18.6, 32.4, 57.5 and 100 μM of compound (log) for 96 hours using % cell viability derived from CCK-8 absorbance readings at 450 nm (n=3, mean±SEM). A DMSO equivalent control (n=2±SEM) was also included for each cell line tested: Ea.hy.926 endothelial cells (Endo), LNCaP androgen dependent metastatic prostate cancer cells, TC2-Ras mouse prostate cancer cells, PC-3 androgen independent metastatic prostate cancer cells, and SH-SY5Y neruoblastoma cells. […]
Cell Viability Screen. […] Cell viability was measured by using the cell counting kit-8 (CCK-8, Dojindo). […] CCK-8 absorbance was measured at 450 nm using a GloMax Multimode Reader (Promega). Readings were performed the day after seeding to normalize for variations in cell seeding and after 96 hours of compound treatment. After each reading, CCK-8 media was removed and replaced with media containing compound as described previously. […] As described previously, an initial baseline CCK-8 reading was performed at 24 hours post seeding to correct for variations in seeding density. First, 450 nm values for each well were subtracted from media only readings to correct for baseline absorbance. Then, the 96 hour readings were normalized to their respective 24 hour readings to control for seeding variation. […]

Broadly, the IC50 is the point on the concentration scale where inhibition reaches its midpoint. `O=C(c1cc(F)cc2c1OCOC2)N1CCN(C2c3ccccc3-c3ccccc32)CC1` [Compound C3, [4-(9h-fluoren-9-yl)piperazino](6-fluoro-4h-1,3-benzodioxin-8-yl)methanone]: the “reduction of IL-1β expression” value in the assay with THP-1 human monocytes is given as approximately 8 fold. For the same compound, the IC50 in assay [1] is approximately 1000 nM; in assay [1] (Homo sapiens, PC-3, 96 h) it was approximately 800 nM.
